Assay results published in patent US12286428B2 (BRISTOL-MYERS SQUIBB COMPANY, priority 2019, dated 2025).

Legend:
IRAK4 = molecular target: T1, IRAK4 (Homo sapiens, UniProt Q9NWZ3); assay: IRAK4 Inhibition Assay; format: biochemical; conditions: ATP 500 μM, IRAK4 0.6 nM, 60 min room temperature, Caliper LABCHIP 3000
T1 sequence (Q9NWZ3 1-460): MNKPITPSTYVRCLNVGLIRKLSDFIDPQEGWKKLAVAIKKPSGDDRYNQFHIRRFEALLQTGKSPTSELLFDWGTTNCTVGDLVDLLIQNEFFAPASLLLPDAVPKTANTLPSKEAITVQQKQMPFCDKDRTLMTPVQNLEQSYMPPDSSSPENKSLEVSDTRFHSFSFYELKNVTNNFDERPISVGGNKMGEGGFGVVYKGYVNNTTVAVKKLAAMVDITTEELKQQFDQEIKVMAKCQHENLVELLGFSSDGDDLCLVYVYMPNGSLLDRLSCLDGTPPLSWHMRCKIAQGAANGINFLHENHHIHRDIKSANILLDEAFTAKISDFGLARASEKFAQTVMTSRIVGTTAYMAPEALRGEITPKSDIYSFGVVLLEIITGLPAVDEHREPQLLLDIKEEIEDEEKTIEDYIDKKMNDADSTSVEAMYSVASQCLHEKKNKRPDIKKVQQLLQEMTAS
Procedure: The assays were performed in U-bottom 384-well plates. […] The reaction was initiated by the combination of IRAK4 with substrates and test compounds. The reaction mixture was incubated at room temperature for 60 min. and terminated by adding 45 μL of 35 mM EDTA to each sample. The reaction mixture was analyzed on the Caliper LABCHIP® 3000 (Caliper, Hopkinton, MA) by electrophoretic separation of the fluorescent substrate and phosphorylated product. […] The final concentrations of reagents in the assays are ATP, 500 μM; FL-[…] peptide 1.5 μM; IRAK4, 0.6 nM; and DMSO, 1.6%.

[1] = system: Human whole blood, IL-6 levels after TLR2 agonist lipoteichoic acid; assay: IRAK4 Whole Blood Assay; format: cell-based; conditions: compounds 60 minutes at 37° C., lipoteichoic acid 10 μg/mL for 5 hours
Procedure: IRAK4 Whole Blood Assay Human whole blood containing the anti-coagulant ACD-A was plated in 384-well plate (25 μL/well) and incubated with compounds for 60 minutes at 37° C. in a 5% CO2 incubator. The blood was stimulated with a TLR2 agonist, 10 μg/mL final concentration of lipoteichoic acid (Invivogen, San Diego, CA) in 25 μL RPMI (Gibco) for 5 hours in a 5% CO2 incubator. At the end of the incubation, plates were centrifuged at 2300 rpm for 5 minutes. Supernatants were harvested and analyzed for IL-6 levels by Flow Cytometry beads assay (BD Biosciences, San Jose, CA).

[2] = FL-IPTSPITTTYFFFKKK peptide […]

IC50 (IRAK4; [2]) [nM]	IC50 [1] [nM]	IC50 (IRAK4; FL-[…] peptide 1.5 μM) [nM]	Compound
20.6	1420	–	NC(=O)c1cc2cccc(OC[C@@H]3CCC(=O)N3)c2n2ccnc12 [Example 1, (S)-9-((5-oxopyrrolidin-2-yl)methoxy)imidazo[1,2-a]quinoline-4-carboxamide]
15	306	–	CC[C@@H]1CC(=O)N[C@@H]1COc1cccc2cc(C(N)=O)c3nccn3c12 [Example 2, 9-(((2S,3R)-3-ethyl-5-oxopyrrolidin-2-yl)methoxy)imidazo[1,2-a]quinoline-4-carboxamide]
1.7	152	–	CC[C@H]1CC(=O)N[C@@H]1COc1cccc2cc(C(N)=O)c3nccn3c12 [Example 3, 9-(((2S,3S)-3-ethyl-5-oxopyrrolidin-2-yl)methoxy)imidazo[1,2-a]quinoline-4-carboxamide]
2.6	593	–	CC[C@H]1[C@@H](COc2cccc3cc(C(N)=O)c4nccn4c23)NC(=O)[C@@H]1F [Example 4, 9-(((2S,3S,4R)-3-ethyl-4-fluoro-5-oxopyrrolidin-2-yl)methoxy)imidazo[1,2-a]quinoline-4-carboxamide]
518	–	–	CC[C@H]1[C@@H](COc2cccc3cc(C(N)=O)c4nccn4c23)NC(=O)[C@@]1(C)F [Example 6, 9-(((2S,3 S,4S)-3-ethyl-4-fluoro-4-methyl-5-oxopyrrolidin-2-yl)methoxy)imidazo[1,2-a]quinoline-4-carboxamide]
243	–	–	NC(=O)c1cc2cccc(OC[C@H]3COCC(=O)N3)c2n2ccnc12 [Example 7, (R)-9-((5-oxomorpholin-3-yl)methoxy)imidazo[1,2-a]quinoline-4-carboxamide]
262	–	–	CC[C@H]1OC(=O)N[C@H]1COc1nccc2cc(C(N)=O)c3nccn3c12 [Example 23, 1-(((4S,5R)-5-ethyl-2-oxooxazolidin-4-yl)methoxy)imidazo[1,2-a][1,7]naphthyridine-6-carboxamide]
176	–	–	CC[C@@H]1OC(=O)N[C@H]1COc1nccc2cc(C(N)=O)c3nccn3c12 [Example 24, 1-(((4S,5S)-5-ethyl-2-oxooxazolidin-4-yl)methoxy)imidazo[1,2-a][1,7]naphthyridine-6-carboxamide]
1930	–	–	CC[C@H]1OCC(=O)N[C@H]1COc1nccc2cc(C(N)=O)c3nccn3c12 [Example 25, 1-(((2R,3S)-2-ethyl-5-oxomorpholin-3-yl)methoxy)imidazo[1,2-a][1,7]naphthyridine-6-carboxamide]
80.4	–	–	CC[C@@H]1OCC(=O)N[C@@H]1COc1nccc2cc(C(N)=O)c3nccn3c12 [Example 26, 1-(((2S,3R)-2-ethyl-5-oxomorpholin-3-yl)methoxy)imidazo[1,2-a][1,7]naphthyridine-6-carboxamide]
1820	–	–	NC(=O)c1cc2ccnc(OC[C@@H]3CNC(=O)N3)c2n2ccnc12 [Example 27, (S)-1-((2-oxoimidazolidin-4-yl)methoxy)imidazo[1,2-a][1,7]naphthyridine-6-carboxamide]
60.3	–	–	CC[C@@H]1[C@H](F)C(=O)N[C@@H]1COc1cccc2cc(C(N)=O)c3ncnn3c12 [Example 38, 9-(((2S,3S,4S)-3-ethyl-4-fluoro-5-oxopyrrolidin-2-yl)methoxy)-[1,2,4]triazolo[1,5-a]quinoline-4-carboxamide]
42.2	–	–	CC[C@@H]1CC(=O)N[C@@H]1COc1cccc2cc(C(N)=O)c3nncn3c12 [Example 41, 9-(((2S,3R)-3-ethyl-5-oxopyrrolidin-2-yl)methoxy)-[1,2,4]triazolo[4,3-a]quinoline-4-carboxamide]
290	–	–	CC[C@H]1CC(=O)N[C@@H]1COc1cccc2cc(C(N)=O)c3nncn3c12 [Example 42, 9-(((2S,3S)-3-ethyl-5-oxopyrrolidin-2-yl)methoxy)-[1,2,4]triazolo[4,3-a]quinoline-4-carboxamide]
16.2	–	–	CC[C@@H]1[C@H](F)C(=O)N[C@@H]1COc1cccc2cc(C(N)=O)c3nncn3c12 [Example 43, 9-(((2S,3S,4S)-3-ethyl-4-fluoro-5-oxopyrrolidin-2-yl)methoxy)-[1,2,4]triazolo[4,3-a]quinoline-4-carboxamide]

Continued, compound first:

Compound	IC50 (IRAK4; [2]) [nM]	IC50 [1] [nM]	IC50 (IRAK4; FL-[…] peptide 1.5 μM) [nM]
1-(((2S,3S,4S)-3-ethyl-4-fluoro-5-oxotetrahydrofuran-2-yl)methoxy)-8-methyl-8,9-dihydrofuro[2,3-h]isoquinoline-6-carboxamide [Example 51]	3.1	399	–
1-(((2S,3S,4S)-3-ethyl-4-fluoro-5-oxotetrahydrofuran-2-yl)methoxy)-8-methyl-8,9-dihydrofuro[2,3-h]isoquinoline-6-carboxamide [Example 52]	1.3	–	–
CC[C@@H]1[C@H](F)C(=O)N[C@@H]1COc1cccc2cc(C(N)=O)c3nc(C(C)(C)O)cn3c12 [Example 13, 9-(((2S,3S,4S)-3-ethyl-4-fluoro-5-oxopyrrolidin-2-yl)methoxy)-2-(2-hydroxypropan-2-yl)imidazo[1,2-a]quinoline-4-carboxamide]	1430	–	–
CC[C@@H]1CC(=O)N[C@@H]1COc1nc(C)cc2cc(C(N)=O)c3nccn3c12 [Example 28, 1-(((2S,3R)-3-ethyl-5-oxopyrrolidin-2-yl)methoxy)-3-methylimidazo[1,2-a][1,7]naphthyridine-6-carboxamide]	225	–	–
CC[C@@H]1CC(=O)N[C@@H]1COc1nc(C)cc2cc(C(N)=O)c3nc(C)cn3c12 [Example 29, 1-(((2S,3R)-3-ethyl-5-oxopyrrolidin-2-yl)methoxy)-3,8-dimethylimidazo[1,2-a][1,7]naphthyridine-6-carboxamide]	601	–	–
CC[C@@H]1CC(=O)N[C@@H]1COc1nccc2cc(C(N)=O)c3nc(C(F)(F)F)cn3c12 [Example 30, 1-(((2S,3R)-3-ethyl-5-oxopyrrolidin-2-yl)methoxy)-8-(trifluoromethyl)imidazo[1,2-a][1,7]naphthyridine-6-carboxamide]	–	–	1720
CC[C@H]1CC(=O)N[C@@H]1COc1nccc2cc(C(N)=O)c3nc(C(F)(F)F)cn3c12 [Example 31, 1-(((2S,3S)-3-ethyl-5-oxopyrrolidin-2-yl)methoxy)-8-(trifluoromethyl)imidazo[1,2-a][1,7]naphthyridine-6-carboxamide]	1060	–	–
CC[C@@H]1[C@H](F)C(=O)N(CO)[C@@H]1COc1nccc2cc(C(N)=O)c3nccn3c12 [Example 32]	62	–	–
CC[C@@H]1[C@H](F)C(=O)N[C@@H]1COc1cccc2cc(C(N)=O)c3nc(C)nn3c12 [Example 40, 9-(((2S,3S,4S)-3-ethyl-4-fluoro-5-oxopyrrolidin-2-yl)methoxy)-2-methyl-[1,2,4]triazolo[1,5-a]quinoline-4-carboxamide]	39.1	–	–
CC[C@@H]1[C@H](F)C(=O)N[C@@H]1COc1cccc2cc(C(N)=O)c3nnnn3c12 [Example 45, 9-(((2S,3S,4S)-3-ethyl-4-fluoro-5-oxopyrrolidin-2-yl)methoxy)tetrazolo[1,5-a]quinoline-4-carboxamide]	70	–	–
CC[C@@H]1[C@H](F)C(=O)N[C@@H]1COc1nccc2cc(C(N)=O)c3ncnn3c12 [Example 47, 9-(((2S,3S,4S)-3-ethyl-4-fluoro-5-oxopyrrolidin-2-yl)methoxy)-[1,2,4]triazolo[1,5-a][1,7]naphthyridine-4-carboxamide]	78.1	–	–
CC[C@@H]1CC(=O)N[C@@H]1COC1=C(F)C=CC2C=C(C(N)=O)c3nccn3C12 (stereo partly drawn) [Example 59, 9-(((2S,3R)-3-ethyl-5-oxopyrrolidin-2-yl)methoxy)-8-fluoro-5a,9a-dihydroimidazo[1,2-a]quinoline-4-carboxamide]	112	–	–
CC[C@@H]1CC(=O)N[C@@H]1COC1=CC=CC2C=C(C#N)c3nccn3C12 (stereo partly drawn) [Example 60, 9-(((2S,3R)-3-ethyl-5-oxopyrrolidin-2-yl)methoxy)-5a,9a-dihydroimidazo[1,2-a]quinoline-4-carbonitrile]	350	–	–
CC[C@@H]1[C@H](F)C(=O)N[C@@H]1COC1=CC=CC2C(NC)=C(C(N)=O)c3nccn3C12 (stereo partly drawn) [Example 61, 9-(((2S,3S,4S)-3-ethyl-4-fluoro-5-oxopyrrolidin-2-yl)methoxy)-5-(methylamino)-5a,9a-dihydroimidazo[1,2-a]quinoline-4-carboxamide]	94.4	–	–
CC[C@@H]1[C@H](F)C(=O)N[C@@H]1COc1nccc2cc(C(N)=O)c3c(c12)CC(C)(C)O3 [Example 63, 1-(((2S,3S,4S)-3-ethyl-4-fluoro-5-oxopyrrolidin-2-yl)methoxy)-8,8-dimethyl-8,9-dihydrofuro[2,3-h]isoquinoline-6-carboxamide]	2.2	–	–
